ChEMBL document CHEMBL1201862, “PubChem BioAssay data set” (2004)
Calls of active or inactive are those of the source.

How the values were obtained:
[1] = T. cruzi growth inhibition in host cells, dose response, cell-based, plate reader, dry powder, set 2 (AID 652275); format: functional
[2] = BHK-21 cell cytotoxicity, cytotoxicity control for flavivirus guanylyltransferase probe project, secondary screen (AID 624078); format: functional
[3] = system: Plasmodium falciparum; experiment: growth inhibition of P. falciparum 3D7, dose response, 3D7 strain, red blood cells, SYBR Green, cherry-picked (AID 652047); format: functional
[4] = biological target: Potassium channel subfamily K member 3 (Homo sapiens, UniProt O14649); experiment: TASK1 (KCNK3) potassium channel inhibitors, SAR follow-up, CHO cells, FluxOR thallium flux (AID 652212); format: functional
[5] = biological target: Potassium channel subfamily K member 9 (Homo sapiens, UniProt Q9NPC2); experiment: TASK3 (KCNK9) channel inhibitors, thallium flux, SAR follow-up, selectivity assay for TASK1 inhibitor project, cell-based, FluxOR thallium flux, concentration-response (AID 652211); format: functional;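 also: potency is for inhibitors of the channel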
[6] = biological target: Potassium channel subfamily K member 3 (Rattus norvegicus, UniProt O54912); experiment: SAR analysis for the identification of selective inhibitors of the two-pore domain potassium channel TASK1(KCNK3):Automated Electrophysiology.; format: functional
[7] = system: HeLa; experiment: HeLa cell cytotoxicity, dose response, cytotoxicity control, ATP luminescence, cherry-pick samples (AID 687004); format: functional, cell-based; conditions: Homo sapiens
[8] = biological target: Disintegrin and metalloproteinase domain-containing protein 17 (Homo sapiens, UniProt P78536); experiment: exosite inhibitors of ADAM17, dose response, biochemical (AID 743260)
[9] = ADAM10 protease inhibitors, dose response, selectivity assay for ADAM17 exosite inhibitor project, biochemical, FRET peptide substrate, recombinant human ADAM10 (AID 743259);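 also: ADAM10 enzyme cleaving a FRET peptide substrate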
[10] = system: Streptococcus; experiment: Group A Streptococcus viability loss, dose response, counter-screen for streptokinase expression inhibitor project, luminescence, BacTiterGlo (AID 1915); format: functional, organism-based;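 also: potency for reduction of bacterial viability or growth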
[11] = biological target: Albumin (Bos taurus, UniProt P02769); experiment: Counterscreen for inhibitors of T-cell receptor (TCR)-CD3 interaction: Fluorescence-based biochemical high throughput dose response assay to identify inhibitors of T-cell receptor (TCR)-CD3 interaction using a TAMRA-labeled BSA probe.; format: functional
[12] = system: Streptococcus sp. 'group A'; experiment: growth inhibition of control SK(-) GAS strain, dose response, counter-screen for streptokinase expression inhibitor project, luminescence, kanamycin, BacTiterGlo, confirmation (AID 1900); format: functional, organism-based
[13] = biological target: Protein Wnt-3a (Mus musculus, UniProt P27467); experiment: SAR analysis of small molecule antagonists of Gli-SUFU in a Wnt3a luminescent reporter assay.; format: functional
[14] = Late stage assay provider results from the probe development effort to identify selective inhibitors of heat shock protein 90 (HSP90): Absorbance-based cell proliferation assay in MCF7 cells.; format: functional
[15] = Late stage assay provider results from the probe development effort to identify selective inhibitors of heat shock protein 90 (HSP90): Absorbance-based cell proliferation assay in SKBR3 cells.; format: functional; conditions: SK-BR-3
[16] = biological target: fMet-Leu-Phe receptor (Homo sapiens, UniProt P21462); experiment: FPR ligands, dose response (AID 519); format: functional
[17] = biological target: ATP-dependent molecular chaperone HSP82 (Candida albicans (strain WO-1) (Yeast), UniProt C4YTQ8); experiment: loss of DOC-induced GRE-beta-galactosidase reporter signal, dose response, Hsp90 inhibitor project, S. cerevisiae, luminescence (AID 2400); format: functional, cell-based;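 also: beta-galactosidase luminescence from glucocorticoid response element reporter as proxy for Hsp90 function; inhibitor potency where signal loss means Hsp90 inhibition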
[18] = inhibitors of CMV-promoter luciferase reporter, dose response, counter-screen for Pax8 inhibitor project, cell-based, HEK293, luminescence, dry powder (AID 743020); format: functional
[19] = C. albicans growth with fluconazole, confirmation, fluorescence, retest (AID 2467); format: functional, cell-based
[20] = biological target: Serine/threonine-protein phosphatase (Candida dubliniensis (strain CD36 / CBS 7987 / NCPF 3949 / NRRLY-17841) (Yeast), UniProt B9W6M3); experiment: calcineurin pathway inhibitors in yeast reporter, dose response, S. cerevisiae, CDRE-lacZ, luminescence, secondary (AID 2388); format: functional, cell-based;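 also: yeast reporter cells carrying a calcineurin-responsive lacZ construct stimulated with calcium chloride; luminescent beta-galactosidase reporter signal in whole cells rather than isolated phosphatase activity; potency for inhibition where a drop in reporter signal means calcineurin blockade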
[21] = biological target: Paired box protein Pax-8 (Homo sapiens, UniProt Q06710); experiment: inhibitors of PAX8-driven TPO luciferase reporter, dose response, RMG-I cells, cherry-pick (AID 687027); format: functional, cell-based;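 also: luciferase reporter driven by Pax8 target thyroperoxidase promoter measured by SteadyGlo luminescence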
[22] = NIH-3T3 fibroblast cytotoxicity, dose response, cytotoxicity control, cell-based, fluorescence, Alamar Blue, secondary assay (AID 2327); format: functional;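 also: NIH-3T3 mouse fibroblasts cultured with fluconazole at 8 µg/mL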
[23] = cells; conditions: HEK293
[24] = cells; conditions: A549
[25] = system: BJ; experiment: cytotoxicity toward BJ-TERT-LT-ST fibroblasts, dose response, cell-based, RAS-independent, luminescence (AID 1935); format: functional; conditions: Homo sapiens;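 also: BJ fibroblasts immortalized with TERT plus LT and ST oncogenes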
[26] = system: BJ; experiment: cells; format: functional, cell-based; conditions: Homo sapiens
[27] = cytotoxicity toward DRD oncogenic fibroblasts, dose response, cell-based, non-viral oncogenic, luminescence (AID 1934); format: functional; conditions: Homo sapiens
[28] = system: BJ; experiment: cytotoxicity toward BJ-TERT fibroblasts, dose response, cell-based, RAS-independent, luminescence (AID 1933); format: functional; conditions: Homo sapiens
[29] = MITF: Counter assay: A375 proliferation Measured in Cell-Based System Using Plate Reader - 2084-03_Inhibitor_Dose_DryPowder_Activity_Set8.; format: functional; conditions: A-375
[30] = MITF Orthogonal Assay: SK-MEL-5 CTG Assay Measured in Cell-Based System Using Plate Reader - 2084-02_Inhibitor_Dose_DryPowder_Activity_Set7.; format: functional
[31] = TRPM1 promoter luciferase reporter signal decrease, dose response, MITF inhibitor project, cell-based, SK-MEL-5, dry powder, set 8 (AID 624430); format: functional
[32] = cells; format: functional, cell-based
[33] = biological target: Nuclear receptor subfamily 0 group B member 1 (Homo sapiens, UniProt P51843); format: functional, cell-based;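 also: HEK293T cells transfected with SF-1 and DAX-1 plus StAR promoter luciferase reporter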
[34] = biological target: T1, Oxysterols receptor LXR-beta (Homo sapiens, UniProt P55055); format: functional, cell-based;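 also: agonist activity at LXR measured by a cell-based luminescence readout across a dose range, run as a counterscreen for daf-12 agonists; HEK293 cells with Gal4-LXR fusion and GAL4-driven luciferase reporter; potency for activation of Gal4-LXR reporter so compounds are agonists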
T1 sequence (P55055 whole entry): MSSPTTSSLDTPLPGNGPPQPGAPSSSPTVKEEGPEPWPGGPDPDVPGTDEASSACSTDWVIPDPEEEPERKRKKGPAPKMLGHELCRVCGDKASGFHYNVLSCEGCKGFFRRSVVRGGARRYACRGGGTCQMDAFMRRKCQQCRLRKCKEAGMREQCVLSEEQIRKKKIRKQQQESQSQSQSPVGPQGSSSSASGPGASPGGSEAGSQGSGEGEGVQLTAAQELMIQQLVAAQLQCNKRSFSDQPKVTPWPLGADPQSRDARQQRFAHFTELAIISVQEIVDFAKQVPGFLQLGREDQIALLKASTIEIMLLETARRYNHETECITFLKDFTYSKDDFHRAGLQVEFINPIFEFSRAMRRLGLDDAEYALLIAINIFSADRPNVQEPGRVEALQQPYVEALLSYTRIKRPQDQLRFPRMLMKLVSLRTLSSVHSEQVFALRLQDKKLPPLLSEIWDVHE

[35] = HEK293T cytotoxicity, dose response, cytotoxicity control for miR-122 modulator project, cell-based, inhibitor set, cherry-pick, set 2 (AID 720697); format: functional
[36] = HEK293T cytotoxicity, dose response, cytotoxicity control for miR-122 modulator project, cell-based, activator set, cherry-pick (AID 720690); format: functional;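 also: HEK293T human cells scored for general mammalian cytotoxicity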
[37] = miR-122 activators in hepatoma reporter cells, dose response, cell-based, Huh7 psiCHECK-miR122, Renilla luciferase, cherry-picked (AID 651956); format: functional;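 also: huh7 hepatoma cells stably carrying a psiCHECK-2 miR-122 sensor plasmid; renilla luciferase signal reporting endogenous miR-122 activity after 48 h compound exposure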
[38] = biological target: 1-phosphatidylinositol 4,5-bisphosphate phosphodiesterase beta-3 (Homo sapiens, UniProt Q01970); experiment: Fluorescence-based biochemical high throughput dose response assay to identify inhibitors of phospholipase C isozymes (PLC-B3).
[39] = biological target: 1-phosphatidylinositol 4,5-bisphosphate phosphodiesterase gamma-1 (Homo sapiens, UniProt P19174); experiment: Counterscreen for inhibitors of phospholipase C isozymes (PLC-B3): Fluorescence-based biochemical high throughput dose response assay to identify inhibitors of phospholipase C isozymes (PLC-gamma1).
[40] = biological target: NS3 (Hepatitis C virus, UniProt A3EZJ3); experiment: HCV NS3 helicase inhibitor potency, dose response, biochemical, fluorescence polarization, ChemBridge library (AID 743264)
[41] = human group III sPLA2 inhibitors, dose response, biochemical, QFRET, IC50 (AID 743457);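 also: green fluorescence rise as the enzyme cleaves BODIPY PC-A2 in liposomes; potency for inhibition of the enzyme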
[42] = HepG2 cell cytotoxicity, dose response, cytotoxicity control, dry powder samples (AID 720568); format: functional, cell-based
[43] = Luminescence Cell-Based Dose Response HTS to Identify Inhibitors of 5'UTR Stem-Loop Driven Prion Protein mRNA Translation in H4 Neuroglioblastoma Cells. [Related pubchem assays: 1827 (Project Summary), 1813 (Primary HTS)]; format: functional
[44] = inhibitors of firefly luciferase expression or activity, dose response, H4 neuroglioma cells, luminescence (AID 1990); format: functional, cell-based
[45] = biological target: Major prion protein (Homo sapiens, UniProt P04156); format: functional, cell-based
[46] = inhibitors of SNCA 5'UTR-driven reporter translation, confirmation, H4 neuroglioma cells, luminescence (AID 1988); format: functional, cell-based
[47] = biological target: Beta-lactamase (Pseudomonas aeruginosa, UniProt Q79MP6);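 also: biochemical dose-response test of metallo-beta-lactamase enzyme inhibition, read out by epi-absorbance; purified recombinant IMP-1 metallo-beta-lactamase with nitrocefin as substrate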
[48] = biological target: Beta-lactamase (Salmonella choleraesuis (strain SC-B67), UniProt Q5J463)
[49] = cells
[50] = microbe, parasite or virus in culture; format: functional; conditions: Mycobacterium tuberculosis
[51] = system: INS1; experiment: beta cell apoptosis inhibitors, cytokine rescue, dose response, luminescence, retest (AID 449756); format: functional, cell-based; conditions: Rattus norvegicus;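 also: cell death triggered by IL-1 beta plus TNF-alpha plus IFN-gamma mixture; protective hits raise ATP signal compared with cytokine alone wells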

CC(C)N1CC2(CN(Cc3ccccc3F)C2)Oc2c(NC(=O)c3ccncc3)cccc2C1=O
AC50 [1]: 0.747 µM (active)

O=S(=O)(Nc1cc(SCc2ccccc2)c(O)c2ccccc12)c1ccc(Cl)cc1
CC50 [2]: 15 µM (active)

Nc1nc(-c2ccccc2)c(-c2ccc([N+](=O)[O-])cc2)s1
AbsAC35 [3]: 103.54 µM

CCOc1ccccc1NC(=O)c1cccc(NC(=O)C2CCCC2)c1
IC50 [4]: 0.054 µM (active) | IC50 [5]: 1.84 µM (active) | IC50 [6]: 0.123 µM (active)

C/C=C/c1ccc2n(c1=O)C[C@H]1[C@H](CO)[C@@H](C(=O)N3CCc4ccccc4C3)N(C(=O)C3CC3)[C@@H]21.C/C=C\c1ccc2n(c1=O)C[C@H]1[C@H](CO)[C@@H](C(=O)N3CCc4ccccc4C3)N(C(=O)C3CC3)[C@@H]21
AC50 [7]: > 52 µM (inactive)

COc1ccc(NC(=O)Nc2ccc3c(c2)C(=O)N([C@@H](C)CO)C[C@@H](C)[C@@H](CN(C)S(=O)(=O)c2cccs2)O3)cc1
IC50 [8]: > 69.5 µM (inactive) | IC50 [9]: > 7.72 µM (active)

C/C(=N\NC(=O)c1ccc(-c2ccccc2)cc1)C1C(=O)c2ccccc2C1=O
EC50 [10]: 4.32 µM (active) | IC50 [11]: > 94.1 µM (inactive) | EC50 [12]: 0.557 µM (active)

COc1cc(OC)cc(C(=O)Nc2cc(N(C)C)ncn2)c1
IC50 [13]: > 21.8 µM (inactive)

O=C1OC(=O)/C(=C\Nc2ccccc2F)C=C1Br
IC50 [14]: 13.6 µM (inactive) | IC50 [15]: 13.3 µM (inactive)

CCOc1cccc(C(=O)C2=C(O)C(=O)N(Cc3cccnc3)C2c2ccco2)c1 (stereo not drawn)
Ki [16]: > 66.7 µM (inactive)

O=C(CCS(=O)(=O)c1ccc(Cl)cc1)Nc1nc(-c2ccncc2)cs1
EC50 [17]: > 150 µM (inactive) | AC50 [18]: < 3.35 µM (active) | EC50 [19]: 5.04 µM (active) | EC50 [20]: > 180 µM (inactive) | AC50 [21]: 8.17 µM (active) | EC50 [22]: 27.9 µM (active)

CN(C)C(=O)CSc1nc2cc(C(=O)c3ccccc3)ccc2[nH]1
AC50 [23]: 29.9 µM (active) | AC50 [24]: 35.9 µM (active) | EC50 [25]: > 150 µM (inconclusive) | EC50 [26]: 14.3 µM (inconclusive) | EC50 [27]: > 150 µM (not active) | EC50 [28]: > 150 µM (not active)

CCN1CCN(C2=C(Nc3ccc(Br)cc3)C(=O)c3ccccc3C2=O)CC1
AC50 [29]: 29.3 µM (active) | AC50 [30]: 8.61 µM (active) | AC50 [31]: 10.7 µM (active)

Cc1ccn2c(Cc3ccccc3)c(-c3ccc(Br)cc3)nc2c1
IC50 [32]: > 67.6 µM (inactive) | IC50 [33]: > 67.6 µM (inactive)

Cc1cccc(C(=N)NOC(=O)c2ccco2)c1
EC50 [34]: > 67.6 µM (inactive)

C[C@@H]1CCCCO[C@@H](CN(C)CC2CCCCC2)[C@@H](C)CN([C@@H](C)CO)C(=O)c2cc(NC(=O)Nc3cccc4ccccc34)ccc2O1
AC50 [35]: 8.05 µM (active) | AC50 [36]: 14.6 µM (active) | AC50 [37]: 10.4 µM (active)

Nc1ncnc2c1ncn2[C@@H]1O[C@H](COP(=O)(O)CP(=O)(O)O)[C@@H](O)[C@H]1O [PHOSPHOMETHYLPHOSPHONIC ACID ADENOSYL ESTER]
IC50 [38]: > 122 µM (inactive) | IC50 [39]: 2.2 µM (active)

O=C1NC(=S)N(c2ccccc2F)C(=O)C1=Cc1ccco1
IC50 [40]: 3.35 µM (inactive)

O=C(/C=C/c1cccs1)NC(=S)NNC(=O)Cc1cccs1
IC50 [41]: 37 µM (inactive) | EC50 [10]: 5.99 µM (active) | EC50 [12]: 2.01 µM (active)

CC(=O)N[C@H]1[C@@H](O[C@@H]2OC(C[C@@H](O)C3O[C@@H](n4ccc(=O)[nH]c4=O)[C@H](O)[C@@H]3O)[C@H](O)[C@H](O)[C@H]2NC(=O)/C=C/CCCCCCCCCCC(C)C)O[C@H](CO)[C@@H](O)[C@@H]1O (stereo partly drawn)
AC50 [42]: 13.5 µM (active)

CCOc1ccc(-c2cc(C(=O)NCCCn3ccnc3)c3cc(Br)ccc3n2)cc1
EC50 [43]: > 120 µM (not active) | EC50 [44]: > 120 µM (not active) | IC50 [45]: 4.38 µM (active) | EC50 [46]: > 120 µM (not active) | IC50 [47]: > 59.6 µM (inactive) | IC50 [48]: > 59.6 µM (inactive) | IC50 [49]: 23.5 µM (inactive) | CC50 [50]: 16.7 µM (active) | AC50 [51]: 9.7 µM (active)
